Test results taken from ChEMBL document CHEMBL1130692, “Novel B-ring modified combretastatin analogues: syntheses and antineoplastic activity” (Bioorg Med Chem Lett, 1998).

Columns and labels:
Colon 26 = experiment: Cytotoxic activity was determined against Colon 26 adenocarcinoma cells; type: functional, cell-based; details: Mus musculus
Bos taurus = organism: Bos taurus; experiment: Inhibitory activity was determined against tubulin polymerization of bovine brain tubulin; type: functional

Row | SMILES | IC50 (Colon 26) [nM] | IC50 (Bos taurus) [nM]
1 | COc1cnc(/C=C\c2cc(OC)c(OC)c(OC)c2)nc1 | > 3000 | > 10000
2 | COc1ccc(/C=C\c2cc(OC)c(OC)c(OC)c2)cn1 | 29.2 | 2000
3 | COc1cc(/C=C\c2ccc(=O)n(C)c2)cc(OC)c1OC | > 3000 | > 10000
4 | COc1ccc(/C=C\c2cc(OC)c(OC)c(OC)c2)nn1 | > 3000 | > 10000
5 | COc1cc(/C=C\c2cc[n+]([O-])cc2)cc(OC)c1OC | > 3000 | > 10000
6 | COc1cnc(/C=C\c2cc(OC)c(OC)c(OC)c2)cn1 | 880 | 9000
7 | COc1ncc(/C=C\c2cc(OC)c(OC)c(OC)c2)cn1 | 275 | 3000
8 | COc1ccc(/C=C\c2cc(OC)c(OC)c(OC)c2)nc1 | 182 | 3000
9 | COc1cc(/C=C\c2cc[n+](C)cc2)cc(OC)c1OC | > 3000 | 
10 | COc1cc(/C=C\c2ccn(C)c(=O)c2)cc(OC)c1OC | 19.2 | 2000
11 | COc1ccc(/C=C\c2cc(OC)c(OC)c(OC)c2)cc1N |  | 1000
12 | COc1ccc(/C=C\c2cc(OC)c(OC)c(OC)c2)cc1O [COMBRETASTATIN A4] | 8.7 | 2000
